# Entries after “also recorded” stand apart in the source; their conditions may differ.
# What was measured:
# AR = AR levels in TNBC cells; type: cell-based; details: in vitro
# [1] = tested on: IGF2-expressing TNBC cells; details: in vitro; statement carries reference 1; cited from earlier work
# [2] = tested on: IGF2-expressing TNBC cells; experiment: TNBC cell proliferation in vitro; type: cell-based, human; details: alone and combined
# 4T1 TNBC cells = experiment: Murine 4T1 TNBC model in syngeneic BALB/c mice; type: in vivo
# Description: FIG. 6A-D show a combination treatment of BMS with anti PD-L1 checkpoint antibody suppresses 4T1 TNBC xenograft progression in vivo. TNBC 4T1 cells (2×105) were implanted in the mammary fat pads of BALB/c female mice (6-week old) using established methods. Mice were then randomized for treatment when tumor volumes were approx. 200 mm3. Mice were treated with either vehicle control (Con), BMS 10 mg/kg, by oral gavage, daily (BMS), anti-PD-L1 checkpoint antibody from Biolegend (anti-CD274/B7-H1/PD-L1 clone 10F.9G2, 100 μg/mouse IP in PBS, Q3 days) (Ab) or combination therapy with BMS and anti-PD-L1 antibody (BMS+Ab). Tumor sizes were recorded Q 2-3 days; and mice were weighed twice weekly. Studies used 5 mice/group.
# TNBC clinical trials have shown a potential benefit of anti-PD-L1 antibodies as ICIs for anti-TNBC therapy. […] Thus, 4T1 cells were implanted in mammary fat pads of female syngeneic BALB/c mice to assess antitumor efficacy of BMS-754807 alone and combined with anti-PD-L1 antibodies in mice with intact immune systems (FIG. 6). After 10 days of treatment, tumors were harvested and processed for mass cytometry analyses to assess changes in immune cell subsets under different treatment conditions in FIG. 6.
# murine 4T1 TNBC = experiment: Cell viability of murine 4T1 TNBC in vitro; type: cell-based
# Description: After seeding TNBC cells for 24 hr, cells were exposed to selected combinations of BMS-754807 (20 μM), enzalutamide (20 μM), and NVP-AEW541 (8 μM) for 72 h. Cell viability was tested by CellTiter 96® aqueous non-radioactive cell proliferation assay (error bar=SEM; n=8; **P<0.001 *P<0.05). Results shown as % of vehicle treated controls.
# [3] = tested on: MDA-MB-231 TNBC cell line; experiment: Scratch wound migration assay (IncuCyte S3); type: cell-based, human; details: media conditioned with IGF2 alone (100 ng/ml), 48 h
# Description: (§1) MDA-MB-231 and HCC 1937 TNBC cell lines were cultured in complete media in 96-welled plates. In each well 60,000 cells were plated. Scratch wounds were made using Unique WoundMaker™. Wound images were collected every 2 h for 48 h using the IncuCyte S3 Live-Cell Analysis System. Media containing IGF2 (100 ng/ml) was refreshed daily. […] Magnification 100×. P<0.05. […] Magnification 100×. P<0.05. FIGS. 4C & D show conditioned media containing a combination of IGF1R/IR antagonists. […] BMS/NVP=BMS-754807 (20 uM) and NVP-AEW541 (8 uM).
# (§2) In vitro TNBC cell migration is stimulated in media conditioned with IGF2 alone (FIGS. 4A & 4B).
# HCC 1937 TNBC cell line = experiment: Scratch wound migration assay (IncuCyte S3); type: cell-based; details: media conditioned with IGF2 alone (100 ng/ml), 48 h
# Description: as §1, §2
Compound,levels of ARs in TNBC cells (AR),human TNBC cell proliferation [1],anti-proliferative effects on IGF2-expressing TNBC cells [2],"tumor volume / TNBC progression (4T1 TNBC cells; BALB/c mice, 4T1 in mammary fat pads, BMS 10 mg/kg oral gavage daily, anti-PD-L1 antibody 100 μg/mouse IP Q3 days)","myeloid derived suppressor cells (MDSCs), total and PMN-MDSC, in tumors (4T1 TNBC cells; mass cytometry of 4T1 tumors harvested after 10 days of treatment, BMS 10 mg/kg oral daily, Ab 100 μg IP Q3 days)","effector CD8+ and CD4+ tumor infiltrating lymphocytes (TILs) (4T1 TNBC cells; mass cytometry of 4T1 tumors, BMS 10 mg/kg oral daily, Ab 100 μg IP Q3 days)",cell viability (murine 4T1 TNBC),cell migration [3],cell migration (HCC 1937 TNBC cell line)
C[C@@]1(C(=O)Nc2ccc(F)nc2)CCCN1c1nc(Nc2cc(C3CC3)n[nH]2)c2cccn2n1 [BMS-754807],decrease levels of ARs,reduce human TNBC cell proliferation,anti-proliferative effects,markedly reduced tumor volume; also recorded: significant antitumor effects,decreased levels,significantly increased,Reduction of cell viability,,
Nc1ncnc2c1c(-c1cccc(OCc3ccccc3)c1)cn2C1CC(CN2CCC2)C1 (centres unmarked) [NVP-AEW541],decrease levels of ARs,,anti-proliferative effects,,,,,,
"IGF2: insulin-like growth factor 2, hormone added to media at 100 ng/ml",,,,,,,,stimulated,stimulated
